{"source": "patent US4028402A", "about": "“Biguanide salts” (Hoffmann-La Roche Inc., priority 1974, dated 1977)", "key": {"[1]": {"experiment": "in vivo", "details": "mouse, po, single daily oral administration for 10 days, 24 hours after the last administration"}, "[2]": {"experiment": "in vivo", "details": "rat, po, single daily oral administration for 10 days, 24 hours after the last administration"}, "[3]": {"system": "blood lactate", "details": "single oral dose, 4 h after administration", "procedure": "(§1) Four hours after administration of the test substances, the animals were decapitated. After deproteinization of the mixed blood with perchloric acid, glucose concentration was determined photometrically by the hexokinase method. Lactate concentration was determined photometrically with lactate dehydrogenase."}, "[4]": {"system": "blood glucose", "details": "single oral dose, 4 h after administration", "procedure": "as §1"}, "[5]": {"system": "Mouse", "details": "single daily oral administration for 10 days, 24 hours after the last administration"}, "[6]": {"system": "Rat", "details": "single daily oral administration for 10 days, 24 hours after the last administration"}, "[7]": {"details": "100 μmol/kg, listed as Bis-dichloroacetate of n-butylbiguanide"}, "[8]": {"details": "300 μmol/kg, listed as Bis-dichloroacetate of n-butylbiguanide"}, "[9]": {"details": "1000 μmol/kg, listed as Bis-dichloroacetate of n-butylbiguanide"}, "[10]": {"details": "100 μmol/kg, listed as Hydrochloride of n-butylbiguanide"}, "[11]": {"details": "300 μmol/kg, listed as Hydrochloride of n-butylbiguanide"}, "[12]": {"details": "1000 μmol/kg, listed as Hydrochloride of n-butylbiguanide"}}, "note": "Structures can show the parent of a compound that is named as a salt. Where two headings read alike, the source gives them in different places.", "data": [{"molecule": "CCCCNC(=N)NC(=N)N", "note": "[n-butylbiguanide bis-dichloroacetate, 1-butylbiguanide bis-(dichloroacetate)]", "values": [{"measurement": "LD50", "setting": "[1]", "value": "1130 ± 180", "unit": "µmol/kg"}, {"measurement": "LD50", "setting": "[2]", "value": "1200 ± 200", "unit": "µmol/kg"}, {"measurement": "Blood lactate, % in controls", "setting": "[3]; [7]", "value": 91, "unit": "% in controls"}, {"measurement": "Blood lactate, % in controls", "setting": "[3]; [8]", "value": 100, "unit": "% in controls"}, {"measurement": "Blood lactate, % in controls", "setting": "[3]; [9]", "value": 106, "unit": "% in controls"}, {"measurement": "Blood glucose, % in controls", "setting": "[4]; [7]", "value": 69, "unit": "% in controls"}, {"measurement": "Blood glucose, % in controls", "setting": "[4]; [8]", "value": 62, "unit": "% in controls"}, {"measurement": "Blood glucose, % in controls", "setting": "[4]; [9]", "value": 37, "unit": "% in controls"}]}, {"molecule": "CCCCNC(=N)NC(=N)N", "note": "[n-butylbiguanide hydrochloride, 1-butylbiguanide.HCl]", "values": [{"measurement": "LD50", "setting": "[5]", "value": "1.37 ± 0.22", "unit": "mmol/kg"}, {"measurement": "LD50", "setting": "[6]", "value": "0.66 ± 0.10", "unit": "mmol/kg"}, {"measurement": "Blood lactate, % in controls", "setting": "[3]; [10]", "value": 123, "unit": "% in controls"}, {"measurement": "Blood lactate, % in controls", "setting": "[3]; [11]", "value": 114, "unit": "% in controls"}, {"measurement": "Blood lactate, % in controls", "setting": "[3]; [12]", "value": 254, "unit": "% in controls"}, {"measurement": "Blood glucose, % in controls", "setting": "[4]; [10]", "value": 76, "unit": "% in controls"}, {"measurement": "Blood glucose, % in controls", "setting": "[4]; [11]", "value": 68, "unit": "% in controls"}, {"measurement": "Blood glucose, % in controls", "setting": "[4]; [12]", "value": 35, "unit": "% in controls"}]}]}
